Test results: US12662490B2, “Heterocyclic compounds” (Hoffmann-La Roche Inc., priority 2019, dated 2026)

Target: T1, MAGL (Homo sapiens, UniProt Q99685)
T1 sequence (Q99685 1-303): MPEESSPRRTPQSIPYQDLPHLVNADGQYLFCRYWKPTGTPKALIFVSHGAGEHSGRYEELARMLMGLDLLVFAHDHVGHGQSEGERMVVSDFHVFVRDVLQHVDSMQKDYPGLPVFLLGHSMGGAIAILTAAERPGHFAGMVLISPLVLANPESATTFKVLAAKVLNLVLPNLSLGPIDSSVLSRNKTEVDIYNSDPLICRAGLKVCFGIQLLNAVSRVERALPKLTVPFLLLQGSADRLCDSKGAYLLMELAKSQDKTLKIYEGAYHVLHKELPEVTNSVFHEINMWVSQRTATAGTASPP
Assay: 2-AG assay (MAGL inhibitory activity; hydrolysis of 2-arachidonoylglycerol to arachidonic acid followed by mass spectrometry)
Assay type: biochemical
Settings: 15 min preincubation at RT, 8 μM 2-arachidonoylglycerol, 30 min at RT, RapidFire MS readout
Summary of the method: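 Compounds (final 12.5 μM to […], 3-fold steps) preincubated 15 min at RT with MAGL ([…]) in 50 mM TRIS, 1 mM EDTA, Tween buffer. Reaction started with 8 μM 2-arachidonoylglycerol, run 30 min at RT, quenched with ACN containing d8-arachidonic acid. Arachidonic acid quantified by RapidFire SPE-triple quadrupole MS (negative ESI), activity from arachidonic acid/d8 ratio.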

Row | IC50 | Compound
1 | 355 nM | COc1cccc(C(=O)N2CCN3C[C@@](O)(c4cc(F)c(F)cc4F)OC[C@@H]3C2)c1Cl [Example 144, [(3R,9aS)-3-hydroxy-3-(2,4,5-trifluorophenyl)-1,4,6,7,9,9a-hexahydropyrazino[2,1-c][1,4]oxazin-8-yl]-(2-chloro-3-methoxy-phenyl)methanone]
2 | 17.4 nM | N#Cc1cc(-c2cccc(C(=O)N3CCN4C[C@@H](c5cc(Cl)c[nH]c5=O)OC[C@@H]4C3)c2Cl)c[nH]1 [Example 117, 4-[3-[(3R,9aS)-3-(5-chloro-2-oxo-1H-pyridin-3-yl)-3,4,6,7,9,9a-hexahydro-1H-pyrazino[2,1-c][1,4]oxazine-8-carbonyl]-2-chloro-phenyl]-1H-pyrrole-2-carbonitrile]
3 | 1480 nM | COc1ccc(F)c(C(=O)N2CCN3C[C@H](c4ccc(F)c(Cl)c4)OC[C@@H]3C2)c1Cl [Example 159, [(3S,9aS)-3-(3-chloro-4-fluoro-phenyl)-3,4,6,7,9,9a-hexahydro-1H-pyrazino[2,1-c][1,4]oxazin-8-yl]-(2-chloro-6-fluoro-3-methoxy-phenyl)methanone]
4 | 46.4 nM | O=C(c1cccc(-c2c[nH]c(=O)o2)c1Cl)N1CCN2C[C@@H](c3ccc(F)c(Cl)c3)OC[C@@H]2C1 [Example 121, 5-[3-[(3R,9aS)-3-(3-chloro-4-fluoro-phenyl)-3,4,6,7,9,9a-hexahydro-1H-pyrazino[2,1-c][1,4]oxazine-8-carbonyl]-2-chloro-phenyl]-3H-oxazol-2-one]
5 | 160 nM | Cc1nocc1-c1cccc(C(=O)N2CCN3C[C@@H](c4ccc(F)c(Cl)c4)OC[C@@H]3C2)c1Cl [Example 40, [(3R,9aS)-3-(3-chloro-4-fluoro-phenyl)-3,4,6,7,9,9a-hexahydro-1H-pyrazino[2,1-c][1,4]oxazin-8-yl]-[2-chloro-3-(3-methylisoxazol-4-yl)phenyl]methanone]
6 | 7.4 nM | O=C(c1cccc(-c2cnc[nH]2)c1Cl)N1CCN2C[C@@H](c3ccc(F)c(Cl)c3)OC[C@@H]2C1 [Example 36, [(3R,9aS)-3-(3-chloro-4-fluoro-phenyl)-3,4,6,7,9,9a-hexahydro-1H-pyrazino[2,1-c][1,4]oxazin-8-yl]-[2-chloro-3-(1H-imidazol-5-yl)phenyl]methanone]
7 | 130 nM | O=C(c1cccc(-c2c[nH]nc2F)c1F)N1CCN2C[C@@](O)(c3ccc(C(F)(F)F)nc3)OC[C@@H]2C1 [Example 78, [(3R,9aS)-3-hydroxy-3-[6-(trifluoromethyl)-3-pyridyl]-1,4,6,7,9,9a-hexahydropyrazino[2,1-c][1,4]oxazin-8-yl]-[2-fluoro-3-(3-fluoro-1H-pyrazol-4-yl)phenyl]methanone]
8 | 4980 nM | COc1cccc(C(=O)N2CCN3C[C@@H](c4sc(C)nc4C)OC[C@@H]3C2)c1Cl (single isomer, unassigned) [Example 51]
9 | 82.8 nM | COc1cccc(C(=O)N2CCN3C[C@@](O)(c4cc(Cl)cc(Br)c4)OC[C@@H]3C2)c1Cl [Example 125, [(3R,9aS)-3-(3-bromo-5-chloro-phenyl)-3-hydroxy-1,4,6,7,9,9a-hexahydropyrazino[2,1-c][1,4]oxazin-8-yl]-(2-chloro-3-methoxy-phenyl)methanone]
10 | 49.2 nM | O=C(c1cccc(-c2ccccn2)c1Cl)N1CCN2C[C@@H](c3ccc(F)c(Cl)c3)OC[C@@H]2C1 [Example 30, [(3R,9aS)-3-(3-chloro-4-fluoro-phenyl)-3,4,6,7,9,9a-hexahydro-1H-pyrazino[2,1-c][1,4]oxazin-8-yl]-[2-chloro-3-(2-pyridyl)phenyl]methanone]
11 | 849 nM | COc1cccc(C(=O)N2CCN3C[C@@](O)(c4cc(Br)no4)OC[C@@H]3C2)c1Cl [Example 157, [(3S,9aS)-3-(3-bromoisoxazol-5-yl)-3-hydroxy-1,4,6,7,9,9a-hexahydropyrazino[2,1-c][1,4]oxazin-8-yl]-(2-chloro-3-methoxy-phenyl)methanone]
12 | 2220 nM | COc1cccc(C(=O)N2CCN3C[C@H](c4cncc(Cl)c4)OC[C@@H]3C2)c1Cl (racemic) [Example 58, (2-chloro-3-methoxy-phenyl)-[rac-(3S,9aS)-3-(5-chloro-3-pyridyl)-3,4,6,7,9,9a-hexahydro-1H-pyrazino[2,1-c][1,4]oxazin-8-yl]methanone]
13 | 2310 nM | COc1cccc(C(=O)N2CCN3C[C@H](c4cc(Cl)ccn4)OC[C@@H]3C2)c1Cl [Example 90, [(3R,9aS)-3-(4-chloro-2-pyridyl)-3,4,6,7,9,9a-hexahydro-1H-pyrazino[2,1-c][1,4]oxazin-8-yl]-(2-chloro-3-methoxy-phenyl)methanone]
14 | 94.4 nM | COc1cccc(C(=O)N2CCN3C[C@@H](c4cc(C)c(Cl)cn4)OC[C@@H]3C2)c1Cl [Example 83, (2-chloro-3-methoxyphenyl)((3S,9aS)-3-(5-chloro-4-methylpyridin-2-yl)hexahydropyrazino[2,1-c][1,4]oxazin-8(1H)-yl)methanone]
15 | 118 nM | COc1cccc(C(=O)N2CCN3C[C@@](O)(c4cc(Br)c(OC)s4)OC[C@@H]3C2)c1Cl [Example 131, [(3S,9aS)-3-(4-bromo-5-methoxy-2-thienyl)-3-hydroxy-1,4,6,7,9,9a-hexahydropyrazino[2,1-c][1,4]oxazin-8-yl]-(2-chloro-3-methoxy-phenyl)methanone]
16 | 288 nM | COc1cccc(C(=O)N2CCN3C[C@@](O)(c4cccc(C(F)(F)F)c4)OC[C@@H]3C2)c1Cl [Example 141, [(3R,9aS)-3-hydroxy-3-[3-(trifluoromethyl)phenyl]-1,4,6,7,9,9a-hexahydropyrazino[2,1-c][1,4]oxazin-8-yl]-(2-chloro-3-methoxy-phenyl)methanone]
17 | 55.3 nM | O=C(c1cccc(-c2c[nH]nc2F)c1Cl)N1CCN2C[C@@](O)(c3ccc(C(F)(F)F)[nH]c3=O)OC[C@@H]2C1 [Example 100, 3-[(3R,9aS)-8-[2-chloro-3-(3-fluoro-1H-pyrazol-4-yl)benzoyl]-3-hydroxy-1,4,6,7,9,9a-hexahydropyrazino[2,1-c][1,4]oxazin-3-yl]-6-(trifluoromethyl)-1H-pyridin-2-one]
18 | 220 nM | O=C(c1cccc(-c2c[nH]nc2F)c1Cl)N1CCN2C=C(c3ccc(C(F)(F)F)cn3)OC[C@@H]2C1 [Example 94, [(9aS)-3-[5-(trifluoromethyl)-2-pyridyl]-6,7,9,9a-tetrahydro-1H-pyrazino[2,1-c][1,4]oxazin-8-yl]-[2-chloro-3-(3-fluoro-1H-pyrazol-4-yl)phenyl]methanone]
19 | 13.5 nM | N#Cc1cc(-c2cc(F)cc(C(=O)N3CCN4C[C@@H](c5cc(Cl)c[nH]c5=O)OC[C@@H]4C3)c2Cl)c[nH]1 [Example 115, 4-[3-[(3R,9aS)-3-(5-chloro-2-oxo-1H-pyridin-3-yl)-3,4,6,7,9,9a-hexahydro-1H-pyrazino[2,1-c][1,4]oxazine-8-carbonyl]-2-chloro-5-fluoro-phenyl]-1H-pyrrole-2-carbonitrile]
20 | 97.7 nM | O=C(c1cccc(-c2cnsc2)c1Cl)N1CCN2C[C@@](O)(c3ccc(F)c(Cl)c3)OC[C@@H]2C1 [Example 127, [(3R,9aS)-3-(3-chloro-4-fluoro-phenyl)-3-hydroxy-1,4,6,7,9,9a-hexahydropyrazino[2,1-c][1,4]oxazin-8-yl]-(2-chloro-3-isothiazol-4-yl-phenyl)methanone]
21 | 2210 nM | COc1cccc(C(=O)N2CCN3C[C@H](c4cc(Cl)c[nH]c4=O)OC[C@@H]3C2)c1Cl [Example 74, 3-[(3S,9aS)-8-(2-chloro-3-methoxy-benzoyl)-3,4,6,7,9,9a-hexahydro-1H-pyrazino[2,1-c][1,4]oxazin-3-yl]-5-chloro-1H-pyridin-2-one]
22 | 131 nM | N#Cc1cc(-c2cc(F)cc(C(=O)N3CCN4C[C@@H](c5c[nH]c(C(F)(F)F)cc5=O)OC[C@@H]4C3)c2Cl)c[nH]1 [Example 132, 4-[3-[(3R,9aS)-3-[4-oxo-6-(trifluoromethyl)-1H-pyridin-3-yl]-3,4,6,7,9,9a-hexahydro-1H-pyrazino[2,1-c][1,4]oxazine-8-carbonyl]-2-chloro-5-fluoro-phenyl]-1H-pyrrole-2-carbonitrile]
23 | 232 nM | COc1cccc(C(=O)N2CCN3C[C@@H](c4cc(Cl)ccn4)OC[C@@H]3C2)c1Cl [Example 91, [(3S,9aS)-3-(4-chloro-2-pyridyl)-3,4,6,7,9,9a-hexahydro-1H-pyrazino[2,1-c][1,4]oxazin-8-yl]-(2-chloro-3-methoxy-phenyl)methanone]
24 | 132 nM | O=C(c1cnc2ccccc2c1Cl)N1CCN2C[C@@H](c3ccc(F)c(Cl)c3)OC[C@@H]2C1 [Example 16, [(3R,9aS)-3-(3-chloro-4-fluoro-phenyl)-3,4,6,7,9,9a-hexahydro-1H-pyrazino[2,1-c][1,4]oxazin-8-yl]-(4-chloro-3-quinolyl)methanone]
25 | 1310 nM | COc1cccc(C(=O)N2CCN3C[C@@H](c4cccc(C(F)(F)F)n4)OC[C@@H]3C2)c1Cl (single isomer, unassigned) [Example 63]
26 | 10.6 nM | Cc1[nH]ncc1-c1cccc(C(=O)N2CCN3C[C@@H](c4ccc(F)c(Cl)c4)OC[C@@H]3C2)c1Cl [Example 26, [(3R,9aS)-3-(3-chloro-4-fluoro-phenyl)-3,4,6,7,9,9a-hexahydro-1H-pyrazino[2,1-c][1,4]oxazin-8-yl]-[2-chloro-3-(5-methyl-1H-pyrazol-4-yl)phenyl]methanone]
